Experimental data published in the NIST ThermoML archive (doi:10.1016/j.jct.2017.07.018).

Conditions: for vapor or sublimation pressure: Liquid, Gas chromatography

OC12CC3CC(CC(C3)C1)C2 [1-adamantanol]
Conditions	vapor or sublimation pressure [kPa]
298.15 K	0.0019
310 K	0.0062
320 K	0.015
330 K	0.035
340 K	0.074
350 K	0.15
360 K	0.28
370 K	0.51
380 K	0.88
390 K	1.5
400 K	2.3
410 K	3.6
420 K	5.4
430 K	7.9
440 K	11
450 K	16
460 K	22
470 K	29
480 K	38
490 K	49
500 K	62
521.2 K	101.33

C[C@@H]1CC[C@H]2C(C)(C)[C@H]3C[C@@]12CC[C@@]3(C)O [(+)-cedrol]
Conditions	vapor or sublimation pressure [kPa]
298.15 K	7e-05
310 K	0.00029
320 K	0.00084
330 K	0.0022
340 K	0.0055
350 K	0.013
360 K	0.027
370 K	0.054
380 K	0.1
390 K	0.19
400 K	0.33
410 K	0.55
420 K	0.89
430 K	1.4
440 K	2.1
450 K	3.1
460 K	4.5
470 K	6.3
480 K	8.7
490 K	12
500 K	16
583.5 K	101.33

Conditions	Normal melting temperature [°C]
Crystal, visual observation	86.00

C=CC(C)(O)CC/C=C(\C)CCC=C(C)C (centres undefined) [(E)-3,7,11-trimethyldodeca-1,6,10-trien-3-ol]
Conditions	vapor or sublimation pressure [kPa]
298.15 K	6e-05
310 K	0.00024
320 K	0.00074
330 K	0.0021
340 K	0.0053
350 K	0.013
360 K	0.028
370 K	0.058
380 K	0.115
390 K	0.22
400 K	0.39
410 K	0.67
420 K	1.1
430 K	1.8
440 K	2.8
450 K	4.3
460 K	6.3
470 K	9.1
480 K	13
490 K	18
500 K	24
554.7 K	101.33

C=CC(C)(O)CC/C=C(/C)CCC=C(C)C (centres undefined) [(Z)-3,7,11-trimethyldodeca-1,6,10-trien-3-ol]
Conditions	vapor or sublimation pressure [kPa]
298.15 K	7.5e-05
310 K	0.00032
320 K	0.001
330 K	0.0026
340 K	0.0067
350 K	0.016
360 K	0.034
370 K	0.071
380 K	0.14
390 K	0.26
400 K	0.46
410 K	0.79
420 K	1.3
430 K	2.1
440 K	3.3
450 K	4.9
460 K	7.2
470 K	10
480 K	15
490 K	20
500 K	27
550.3 K	101.33
